Measured values taken from PubChem BioAssay (NCI).
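Compound exposure: 48 hours, 5 concentrations, 96-well plates. GI50 marks 50% less growth. TGI marks complete inhibition of growth.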

Columns and labels:
Assay in all cases: inhibition of tumour cell growth, NCI panel, 48 h
UO-31 renal = test system: UO-31 renal
COLO 205 colon = test system: COLO 205 colon
HT29 colon = test system: HT29 colon
SF-295 CNS = test system: SF-295 CNS
SNB-75 CNS = test system: SNB-75 CNS
LOX IMVI melanoma = test system: LOX IMVI melanoma
CAKI-1 renal = test system: CAKI-1 renal
OVCAR-4 ovarian = test system: OVCAR-4 ovarian
MDA-MB-231 breast = test system: MDA-MB-231 breast
786-0 renal = test system: 786-0 renal

| SMILES | TGI (UO-31 renal) [µM] | TGI (COLO 205 colon) [µM] | TGI (HT29 colon) [µM] | TGI (SF-295 CNS) [µM] | TGI (SNB-75 CNS) [µM] | TGI (LOX IMVI melanoma) [µM] | TGI (CAKI-1 renal) [µM] | TGI (OVCAR-4 ovarian) [µM] | TGI (MDA-MB-231 breast) [µM] | TGI (786-0 renal) [µM] | GI50 (UO-31 renal) [µM] | GI50 (SF-295 CNS) [µM] | GI50 (SNB-75 CNS) [µM] | GI50 (LOX IMVI melanoma) [µM] | GI50 (CAKI-1 renal) [µM] | GI50 (MDA-MB-231 breast) [µM] | GI50 (COLO 205 colon) [µM] | GI50 (OVCAR-4 ovarian) [µM] |
| --- | --- | --- | --- | --- | --- | --- | --- | --- | --- | --- | --- | --- | --- | --- | --- | --- | --- | --- |
| CCOC(=O)C(O)(NC(C)=O)C(F)(F)F (stereo not given) | > 100 | > 100 | > 100 | > 100 | > 100 | > 100 | > 100 | > 100 |  |  |  |  |  |  |  |  |  |  |
| COc1cc(/C=C2/SC(c3ccccc3)N(c3cccc([N+](=O)[O-])c3)C2=O)cc(OC)c1OC (stereo not given) | > 100 | > 100 |  | > 100 |  | > 100 | > 100 | > 100 | > 100 | > 100 |  |  |  |  |  |  |  |  |
| Nc1nc2c(ncn2C2C=CC(CO)O2)c(=O)[nH]1 (stereo not given) | > 100 | > 100 | > 100 | > 100 | > 100 | > 100 | > 100 | > 100 | > 100 |  |  |  |  |  |  |  |  |  |
| CCOC(=O)c1sc2c(c1OC(=O)c1ccccc1)c(=O)n(-c1ccccc1)c(=S)n2-c1ccccc1 |  | > 100 | 38.1 | > 100 |  | > 100 | > 100 | 32 | 87.2 | 29.4 |  |  |  |  |  |  |  |  |
| OC1OC(c2ccco2)C(F)(F)C(F)(F)C1(F)F (stereo not given) | > 100 | > 100 | > 100 | > 100 |  | > 100 |  | > 100 | > 100 | > 100 |  |  |  |  |  |  |  |  |
| CCCCCCCCCCCCCCCCNc1nc(=O)n(C2CC(O)C(CO)O2)cc1F (stereo not given) | 18.8 | 48.6 | 21.5 | 30.1 |  | 24.1 | 23.3 | 40.4 | 43.3 | 21.7 |  |  |  |  |  |  |  |  |
| COS(=O)c1cc(Cl)cc(Cl)c1O (stereo not given) | > 100 |  | > 100 |  | > 100 | > 100 |  | > 100 |  |  |  |  |  |  |  |  |  |  |
| CSC1SCC2C(=O)N(C)C3(CC3C)C(=O)OCC(NC(=O)c3nc4ccccc4cc3O)C(=O)NC(C)C(=O)N(C)C1C(=O)N(C)C1(CC1C)C(=O)OCC(NC(=O)c1nc3ccccc3cc1O)C(=O)NC(C)C(=O)N2C (stereo not given) | 0.0093 | < 0.0001 | 4.21 |  | < 0.0001 | < 0.0001 | 0.0135 | 0.000325 |  |  |  |  |  |  |  |  |  |  |
| COc1ccc(-c2c(C#N)c(-c3ccccc3)n(NS(=O)(=O)c3ccccc3)c(=O)c2C#N)cc1 |  | > 100 | > 100 | > 100 | > 100 | > 100 | > 100 | > 100 | > 100 | > 100 |  |  |  |  |  |  |  |  |
| CCOP(=O)(OCC)C(Nc1ccc(F)cc1)c1cccc([N+](=O)[O-])c1 (stereo not given) | > 100 | > 100 | > 100 | > 100 | > 100 | > 100 | > 100 | > 100 | > 100 |  |  |  |  |  |  |  |  |  |
| CC1=CC[C@@H]2CC[C@]3(C)[C@H](CC[C@@H]4[C@@]5(C)CCCNC(C)(C)[C@@H]5CC[C@]43C)[C@H]2[C@@H]1C | 2.82 |  |  | 3.42 | 3.84 | 3.01 | 3.05 |  | 3.47 |  | 1.47 | 1.87 | 1.98 | 1.66 | 1.69 | 1.8 |  |  |
| COC(=O)C(COC(=O)/C=C/c1ccc(OC(C)=O)c(OC(C)=O)c1)OC(=O)/C=C/c1ccc(OC(C)=O)c(OC(C)=O)c1 (stereo not given) | 21.8 | 30 | 19.7 | 33.2 |  | 23.4 | 43.1 | 35.1 | 35.6 | 24 |  |  |  |  |  |  |  |  |
| O=C(NCCO)c1ccc(Cl)cc1 | > 100 |  | > 100 | > 100 | > 100 | > 100 | > 100 | > 100 | > 100 | > 100 |  |  |  |  |  |  |  |  |
| COC(=O)[C@@H]1N2C(=S)N(c3ccccc3)C(=O)[C@H]2SC1(C)C | > 100 | > 100 | > 100 | > 100 | > 100 |  | > 100 | > 100 | > 100 | > 100 |  |  |  |  |  |  |  |  |
| O=c1cc(-c2ccccc2)[nH]c2cccc(S)c12 |  | 19.2 |  | 0.389 |  |  |  | > 100 |  | > 100 |  |  |  |  |  |  |  |  |
| COc1c/c(=C2/C=c3ccccc3=N2)[nH]/c1=C/c1[nH]c(C)cc1C |  | 1.26 |  | 0.628 | > 100 |  | 1.2 | > 100 |  |  |  | 0.149 | 0.108 |  | 0.0346 |  | 0.0659 | 0.106 |
| CCOC(=O)C(C(=O)Cc1ccccc1)c1ccccc1 (stereo not given) | > 100 | > 100 | > 100 | > 100 | > 100 | > 100 | > 100 | > 100 |  | > 100 |  |  |  |  |  |  |  |  |
| COc1cc2ccnc3c2c(c1O)N(C)C=C3 | 22.3 | > 63.1 |  | 28.6 | 38.8 | > 50.6 | 20.6 | 32.4 | > 71.1 | 21.8 |  |  |  |  |  |  |  |  |
| OCCN=C1Nc2ccc(Cl)cc2C(=S)N2CSC[C@@H]12 | > 100 | > 100 | > 100 | > 100 |  |  | > 100 | > 100 | > 100 | > 100 |  |  |  |  |  |  |  |  |
| C=C1C[C@]23C[C@@]1(O)CC[C@H]2[C@@]12C=C[C@H](O)[C@@](C)(C(=O)O1)[C@H]2[C@@H]3C(=O)O | > 100 | > 100 | > 100 | > 100 | > 100 | > 100 | > 100 | > 100 |  | > 100 |  |  |  |  |  |  |  |  |
| CSc1nncc(-c2cc3c(c(SC)n2)CCC3)n1 | > 100 | > 100 | > 100 | > 100 | > 100 |  | > 100 | > 100 | > 100 | > 100 |  |  |  |  |  |  |  |  |
| COc1ccc(CNc2nc(NCc3ccc(OC)cc3)nc(N3CCOCC3)n2)cc1 | > 100 | > 100 | 9.63 | 8.98 | > 100 |  | 6.9 | > 100 | > 100 | > 100 |  |  |  |  |  |  |  |  |
| COC(=O)C(C)Sc1nc2cc(Cl)ccc2s1 (stereo not given) | > 100 | > 100 | > 100 | > 100 | > 100 |  | > 100 | > 100 | > 100 | > 100 |  |  |  |  |  |  |  |  |
